Holding throughout (type): biochemical
The target in experiment [1] is T1, RNase A (Bos taurus, UniProt P61823).
T1 sequence (P61823 27-150): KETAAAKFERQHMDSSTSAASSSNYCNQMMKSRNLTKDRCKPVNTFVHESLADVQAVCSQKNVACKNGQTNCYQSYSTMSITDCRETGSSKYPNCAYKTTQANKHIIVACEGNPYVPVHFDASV
Kind of experiment: Radiolabeled RNA probe degradation gel assay, RNase A. Conditions: DTT up to 250 mM, at 37° C. As for the experimental part: The activity of an anti-nuclease cocktail is readily determined using radiolabeled RNA or DNA to detect the inhibition of nuclease by anti-nuclease antibodies in the anti-nuclease cocktail. […] Assay buffer, nuclease and an anti-nuclease cocktail are then added to 0.5 ml microfuge tubes. A mixture comprising assay buffer, RNA or DNA and radiolabeled RNA or DNA is added to the microfuge tubes, and the tubes are vortexed and microfuged. After incubation of the tubes at 37° C. for 30 minutes, a portion of the tube contents is removed and placed into gel loading buffer. After mixing, the combination is loaded onto a gel, typically a 8M urea/5% acrylamide gel, which is exposed to film.
Radiolabeled RNA was used to detect the inhibition of RNase A, RNase T1, and RNase 1 by specific antibodies.
The “MIX” was prepared by combining 10× Assay Buffer (0.9 μl/rxn), 5 mg/ml yeast RNA (0.4 μl/rxn), ^32P-labeled β actin RNA (1 μl/rxn), and nuclease-free H2O (6.7 μl/rxn), for a total of 9 μl/rxn.
1× Assay Buffer was added first. Then Specific RNase Cocktail, Specific Anti-RNase Cocktail and MIX were added. The tubes are vortexed and microfuged, then incubated at 37° C. for 30 min (Table 9).
At the end of the incubation time, 10 μl of solution was removed from the tube and placed into 10 μl Gel Loading Buffer II. The combination was mixed thoroughly and loaded onto a 8M urea/5% acrylamide gel. The gel was exposed to film for 30 min. at −80° C. with an intensifying screen.

In experiment [2] the target is T2, RNase T1 (Aspergillus oryzae, UniProt P00651).
T2 sequence (P00651 27-130): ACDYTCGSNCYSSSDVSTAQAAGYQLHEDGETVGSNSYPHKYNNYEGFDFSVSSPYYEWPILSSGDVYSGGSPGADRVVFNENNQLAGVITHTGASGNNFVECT
Kind of experiment: Radiolabeled RNA probe degradation gel assay, RNase T1. Conditions: 0.15 U RNase T1. The protocol: (§1) The activity of anti-nuclease antibodies is readily determined using radiolabeled RNA or DNA to detect the inhibition of RNase or DNase by the anti-nuclease antibodies. In general, the nuclease and anti-nuclease antibody are separately diluted, typically in 1× assay buffer. Assay buffer, nuclease and anti-nuclease antibody are then added to 0.5 ml microfuge tubes. For assaying anti-RNase activity, a mixture comprising assay buffer, RNA and radiolabeled RNA is added to the microfuge tubes. The “MIX” of assay buffer, RNA and radiolabeled RNA is generally prepared by combining 10× Assay Buffer (0.9 μl/rxn), 5 mg/ml yeast RNA (0.4 μl/rxn), ^32-β actin RNA (1 μl/rxn), and nuclease-free H2O (6.7 μl/rxn) for a total of 9 μl/rxn. The tubes are vortexed and microfuged, then incubated at 37° C. for 30 minutes. After incubation, a portion of the tube contents is removed and placed into gel loading buffer. Then the tube contents and the gel loading buffer are mixed, and the combination is loaded onto a gel, typically a 8M urea/5% acrylamide gel, which is exposed to film. […]
(§2) The activity of an anti-nuclease cocktail is readily determined using radiolabeled RNA or DNA to detect the inhibition of nuclease by anti-nuclease antibodies in the anti-nuclease cocktail. […]

The target of experiment [3] is E. coli RNase 1 (Escherichia coli, UniProt P21338). The experiment is described as follows: Radiolabeled RNA probe degradation gel assay, RNase 1. Conditions: 1 U RNase 1, 30 minute incubation at 37° C. The protocol:
as §1, §2

Sequence of E. coli RNase 1 (P21338 24-268): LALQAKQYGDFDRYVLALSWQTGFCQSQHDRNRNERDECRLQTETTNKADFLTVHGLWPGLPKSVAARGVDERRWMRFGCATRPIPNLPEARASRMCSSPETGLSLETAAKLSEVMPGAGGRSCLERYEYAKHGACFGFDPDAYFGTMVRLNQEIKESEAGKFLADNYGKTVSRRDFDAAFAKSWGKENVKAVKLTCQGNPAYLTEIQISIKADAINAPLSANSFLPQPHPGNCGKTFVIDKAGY

Consider `O[C@H](CS)[C@H](O)CS` (racemic) [DTT, dithiothreitol], for which the “inhibition of RNase A activity” value in experiment [1] is “At 37° C., DTT up to 250 mM did not inhibit RNase Aactivity”. For the same compound, the “concentration that inhibited RNase T1” value in experiment [2] was 5–10 mM DTT inhibited 0.15 U RNase T1. Moreover, the “concentration that inhibited RNase 1” value in experiment [3] was 1–3 mM DTT inhibited 1 U RNase 1 during 30 minute incubation at 37 °C.
